Tested on: medication-free depressed outpatients
Test: EMBARC placebo-controlled randomized clinical trial, treatment response on HAMD17
Type: in vivo, human
Details: for response rate (≥50% reduction in symptoms): sertraline arm, 8 weeks, 50-200 mg
Excerpt: Data were drawn from four studies. Establishment of the treatment-predictive rsEEG signature was accomplished with data from the Establishing Moderators and Biosignatures of Antidepressant Response in Clinic Care (EMBARC) study^21. EMBARC is the largest neuroimaging-coupled placebo-controlled randomized clinical trial (RCT) in depression to date and involved randomization of 309 medication-free depressed outpatients to receive either the selective serotonin reuptake inhibitor (SSRI) sertraline or placebo for eight weeks (FIG. 8). Of these, 228 had high-quality rsEEG data. We then compared the predictive utility of this algorithm against conventional machine learning approaches on the EEG data as well as a predictive model built on clinical data alone. The generalizability of the antidepressant-predictive signature was then tested in a second independent sample of depressed patients (N=72), for whom we had historical information about treatment response during the current depressive episode. A third independent sample of depressed patients (N=24) was used to assess two features of the treatment-predictive rsEEG signature: convergent validity and neurobiological significance. […] We also tested in the third sample whether regions that were prominent in the rsEEG signature reflected individual differences in cortical responsivity, as directly assessed through single pulse transcranial magnetic stimulation (TMS) during concurrent EEG recording. […]
To simply visualize how the SELSER predictions in FIG. 2A could be used for treatment stratification, we partitioned the patients in each arm by applying an arbitrary median split on the cross-validated predicted HAMD17 score changes derived from the sertraline alpha REO model. We then calculated the rates of treatment response (≥50% reduction in symptoms) for the portion of patients above the median (“high”) and below the median (“low”), respectively, based on the model-predicted HAMD17 change scores (FIG. 2E). […]

## CN[C@H]1CC[C@@H](c2ccc(Cl)c(Cl)c2)c2ccccc21 [sertraline]
Only for patients at the higher range of predicted HAMD17 score changes
  efficacy versus placebo: superior to placebo
High group (above median of cross-validated predicted HAMD17 score change, sertraline alpha REO model)
  response rate (≥50% reduction in symptoms): 65%
Low group (below median of cross-validated predicted HAMD17 score change, sertraline alpha REO model)
  response rate (≥50% reduction in symptoms): 20%

Source: patent publication US12383196B2, “Treatment of depression using machine learning” (The Board of Trustees of the Leland Stanford Junior …, priority 2018, dated 2025)
